From patent US5006560A, “Use of GABA-B selective agonists as anti-tussive agents” (Schering Corporation, priority 1989, dated 1991)

Tests used:
[1] = system: mechanically-induced cough; assay: Mechanically-induced cough in cats (probing intrathoracic trachea); type: in vivo, cat; details: mechanical stimulus
Protocol: (§1) Cats (2.2-3.5 kg) are anesthetized with sodium pentobarbital (35 mg/kg, i.p.). Supplemental anesthetic (5 mg/kg, i.v.) is administered as required. Cannulas are placed in a femoral vein and artery for administering drugs and measuring arterial blood pressure, respectively. A tracheostomy is performed.
(§2) Electromyograms (EMGs) of respiratory muscle activity are recorded via bipolar silver wire electrodes placed in the diaphragm and rectus abdominus muscles by the technique of Basmajian and Stecko (1962). The EMGs are amplified (1000-2000×), filtered (500 Hz-10 KHz), monitored on an oscilloscope, and integrated with a "Leaky" RC circuit (100 ms time constant).
(§3) These stimuli only elicit coughs, apneas, apneusis, or augmented breaths (sighs).
(§4) Coughing is produced by coordinated bursts of activity in inspiratory and expiratory muscles. We define a cough as a burst of activity at least 50% greater than control levels in the diaphragm (inspiratory muscle) immediately followed by or coincident with a burst of activity in the rectus abdominus muscle (expiratory muscle). These criteria eliminate apneas or apneusis (no inspiratory or expiratory bursts) and augmented breaths (no expiratory muscle activity). Test compounds are administered intravenously to determine their effects on mechanically (probe) and electrically (SLN) induced cough. […]

[2] = system: electrically-induced cough; assay: Electrically-induced cough in cats (superior laryngeal nerve stimulation); type: in vivo, cat; details: electrical stimulus
Protocol: as §1, §2, §3, §4

[3] = system: citric acid-induced cough; assay: Citric acid-induced cough in guinea pigs; type: in vivo, guinea pig; details: for ED50: Cavia porcellus, sc, citric acid (0.55M) aerosol, guinea pigs, subcutaneous, read-out: ED50, reduction of cough frequency
Protocol: (§5) Unanesthetized male Dunkin Hartley guinea pigs (250-600 g) are placed into transparent plexiglas chambers and exposed to aerosols of capsaicin (300 μM), citric acid (0.55M), or their vehicles at an airflow of 4 L/min. Citric acid is dissolved in 0.9% saline vehicle and capsaicin is dissolved in 10% ethanol, 90% saline vehicle. The volume of solution aerosolized every minute is approximately 0.4 ml. The animals are first exposed to a vehicle aerosol for 4 minutes and then are exposed to citric acid or capsaicin aerosol for an additional 4 minutes. Coughing is detected by a microphone that is placed in the chamber and connected to an audio monitor and chart recorder. Coughs produced deflections on the chart paper which are later counted to determine a cough frequency. Test compounds are administered subcutaneously prior to exposure to citric acid or capsaicin. […] All statistics are expressed relative to control values (unpaired t-test). The results are shown in FIGS. 1A, 1B, 1C and 1D and are discussed below.
(§6) In FIGS. 1C and 1D, 3-APPA or vehicle was administered 45 minutes prior to data collection.
(§7) Guinea pigs were exposed to citric acid at a concentration of 0.55M. This dose of citric acid produced cough frequencies of 10-13 per exposure. The dose of capsaicin used was 0.3 mM and this dose produced cough frequencies of 7-9 per exposure. These doses produced consistent responses and were well tolerated by the animals. Larger doses (up to 2M for citric acid and 3 mM for capsaicin) produced distress to the animals. Lower doses (to 0.2M for citric acid and 0.03 mM for capsaicin) produced inconsistent cough responses.

capsaicin-induced cough = assay: Capsaicin-induced cough in guinea pigs; type: in vivo, guinea pig; details: for ED50: Cavia porcellus, sc, capsaicin (0.3 mM) aerosol, guinea pigs, subcutaneous, read-out: ED50, reduction of cough frequency
Protocol: as §5, §6, §7

[4] = 3-APPA 3 mg/kg i.v., baclofen 0.7 mg/kg i.v.

Compound | inhibitory effect on coughing ([1]; cumulative i.v. doses, 5 minutes after injection, FIG. 3A) | inhibitory effect on coughing ([2]; cumulative i.v. doses, 5 minutes after injection, FIG. 3B) | ED50 [3] | reduction in cough frequency ([3]; citric acid model, FIG. 1A, 1 hour after s.c. treatment) | ED50 (capsaicin-induced cough) | reduction in cough frequency (capsaicin-induced cough; capsaicin model, FIG. 1B, 1 hour after s.c. treatment) | effect of 3-APPA on antitussive response to baclofen [1, 4] | effect of 3-APPA on antitussive response to baclofen [2, 4] | effect of prior treatment with 3-APPA on antitussive effect of baclofen ([3]; citric acid model, 3-APPA 10 mg/kg s.c. before baclofen 1.0 mg/kg s.c., FIG. 1C) | effect of prior treatment with 3-APPA on antitussive effect of baclofen (capsaicin-induced cough; capsaicin model, 3-APPA 10 mg/kg s.c. before baclofen 1.0 mg/kg s.c., FIG. 1D)
NCC(CC(=O)O)c1ccc(Cl)cc1 (racemic) [baclofen] | dose-dependent | dose-dependent | ~0.7 mg/kg | dose-dependent reduction in cough frequency | ~0.7 mg/kg | dose-dependent reduction in cough frequency |  |  |  | 
NCCCP(=O)(O)O [3-APPA, 3-aminopropylphosphonic acid] |  |  |  |  |  |  | attenuated these responses | attenuated these responses | attenuated | attenuated
COc1ccc2c3c1O[C@H]1[C@@H](O)C=C[C@H]4[C@@H](C2)N(C)CC[C@@]341 [Codeine] |  |  | 30 mg/kg |  | 10 mg/kg |  |  |  |  | 
